Laboratory results reported in patent publication US12515027B2, “Subcutaneous biodegradable reservoir device” (Research Triangle Institute, priority 2018, dated 2026).
In brackets after ≈: the same amount, converted by molar mass. Several values for one entry are separate records, joined by “and”; a condition that tells them apart may be missing. Identical values can stand only once. Counter-ions that a name gives are not always drawn. Each block holds one molecule with its values, some of them ahead of it.

How the values were obtained:
[1] = rhesus monkey, in vivo; cited from earlier work
physchem = conditions: 37 °C, organic solvent or mixture, thermodynamic from solid, Solubility
Procedure: Over a 24-hour period, the solutions were mixed periodically and returned to the water bath. After approximately 72 hours, the solutions were removed from the water bath and appearance recorded for each of the saturated solutions. […] The supernatants were prepared for analysis by UPLC. Triplicate weighed aliquots were prepared from the collected supernatants and analyzed for assay using a UPLC/UV method. The analysis was performed using a Waters BEH C18 column (2.1 mm×50 mm, 1.7 μm) under gradient, reversed phase conditions with detection at 260 nm. The saturated solutions were quantitated by linear regression analysis against a 5-point calibration curve.
Testing using the same methodology was performed for EFdA, LNG, and ENG using various excipients.

[2] = Chromatographic purity (stability) of formulation inside implant after in-vitro exposure (UPLC/UV); format: physicochemical
[3] = In vitro release from PCL reservoir implants in PBS pH 7.4 at 37 °C (UV-Vis); format: physicochemical; conditions: for Daily RR: PCL 89 kDa
Procedure: The implants were incubated in 1×PBS (pH 7.4) at 37° C. Drug quantity released in media was measured via UV-Vis three times per week during which the implants were transferred to fresh buffer to maintain sink conditions. Drug concentrations were determined by correlating UV absorbance values to a standard curve. Standard curves involved measuring peak absorbance values as a function of drug concentrations diluted by half from bulk solutions. Peak absorbance values were determined by scanning the dilute drug solutions from 230 to 700 nm at a step size of 1 nm and assessing the maximum UV absorbance value.
Testing was performed to evaluate release kinetics of varying formulations of active agent and excipient. In particular, the release mechanism and release profiles for TAF formulated with varying mass quantities of castor oil from extruded PCL tubes was evaluated. Heat extruded PCL devices were fabricated (2.5 mm×40 mm) using 80 kDa Sigma grade PCL. […] For the in vitro release studies, devices were incubated in 40 mL of phosphate buffered saline (PBS) at pH 7.4 in a shaking incubator at 37° C. The implants were transferred to fresh buffer three times per week to maintain sink conditions.
Testing was performed to evaluate the in vitro release profile for an exemplary segmented device. In-vitro conditions included a simulated physiological media of a salt solution at pH between 6.5 and 7.5 at a temperature of 37° C. The exemplary device was engineered to release two APIs simultaneously, both at zero-order release kinetics. The device was fabricated with a segmented architecture that contained LNG formulated with ethyl oleate at a 1:4 ratio and EFdA formulated with castor oil at a 1:1 ratio and housed in separate compartments within a single implant design. Different segment lengths, polymer membrane thicknesses and polymer properties were tested.
In vitro release characterization involved incubation of the implants in 40 mL 1× phosphate buffered saline (PBS) (pH 7.4) at 37° C. and placed on an orbital shaker. […] The release buffer was sampled three times per week during which the devices were transferred to 40 mL of fresh buffer to maintain sink conditions. TAF quantity released in each PBS buffer during the time interval was calculated and cumulative mass of drug release as a function of time was determined.

[4] = In vivo study of one or two subcutaneous PC12 implants, 90 days (Example 20); parameters: species or system New Zealand white rabbits; conditions: hormone in subcutaneous implant
Procedure: In vivo analysis was performed with 20 naïve New Zealand white rabbits. […] In particular, female NZW rabbits each received two subcutaneous implants bilaterally inserted into the subscapular region: (1) one implant that contained an ARV drug and (2) one implant that contained a hormonal contraceptive drug. Both implants remained in the subcutaneous space for 90 days. Blood samples were taken at 0, 1, 3, 7, […], 45, 60, 75, and 90 days. After 90 days, the animals were euthanized, and the implants were retrieved. Tissues were collected and analyzed for levels of ARVs (TFV, TAF, and TFV-DP). As a comparator for the dual insertion modality, each female NZW rabbit in a separate group received a single implant, where each implant contained a single drug formulation: either ARV or hormone. The implant remained in the subcutaneous space for 90 days. Blood samples were taken at 0, 1, 3, 7, 15, 30, 45, 60, 75, and 90 days. After 90 days, the animals were euthanized, and the implants were retrieved. Tissues were collected and analyzed for levels of ARVs (TFV, TAF, and TFV-DP). The polymer was PC12.

[5] = Evaluation of Elvitegravir for use in the device
Procedure: Elvitegravir, which is marketed by Gilead, was also evaluated.

[6] = Stability of Naltrexone base in excipients; format: physicochemical; conditions: stability results
[7] = Naltrexone excipient screen, rapid solubility assay; format: physicochemical
Procedure: Heat extruded polycaprolactone (PCL) tubes were fabricated (2.5 mm×40 mm) using 80 kDa PCL to produce devices with 70 μm and 100 μm wall thicknesses. […] In vitro release studies involved incubation of devices in 40 mL of phosphate buffered saline (PBS), pH 7.4 in a shaking incubator at 37° C. Implants were transferred to fresh buffer three times per week to maintain sink conditions. The concentration of drugs released in media over time was measured via UV-vis spectroscopy. Solubility, stability, and purity of APIs in excipient were evaluated via HPLC.

[8] = segmented implant: ENG:sesame oil 2:1 (10 mm, 200 μm) + TAF base:castor oil 2:1 (40 mm, 70 μm)
[9] = segmented implant: ENG:sesame oil 2:1 (10 mm, 200 μm) + TAF base:sesame oil 2:1 (40 mm, 70 μm)

Structure (SMILES): CC(Cn1cnc2c(N)ncnc21)OCP(=O)(O)OP(=O)(O)OP(=O)(O)O (stereo in doubt) [TFV-DP, tenofovir diphosphate]
duration of sustained levels in PBMCs [1]: 83 days

solubility at 72 h (physchem): 34.9 mg/mL (≈ 119 mM)
% Purity at Day-365 ([2]; EFdA with castor oil): 99.3%
% Purity at Day-365 ([2]; EFdA with ethyl oleate): 99.4%
% Purity at Day-365 ([2]; EFdA with glycerol): 99.5%
% Purity at Day-365 ([2]; EFdA with propylene glycol): 99.5%
% Purity at Day-365 ([2]; EFdA with sesame oil): 99.3%
stability within an exemplary implant ([2]; after 1 year in in-vitro conditions): ~99%
purity after 1 year of exposure to in-vitro conditions ([2]; all EFdA implants, Day-365): > 99%
release rate for the glycerol device ([3]; 70 μm wall, FIG. 11C study): 30 μg of EFdA/day
release rate for the sesame oil device ([3]; 70 μm wall, FIG. 11C study): 8 μg of EFdA/day
duration of sustained linear release ([3]; EFdA castor oil devices, 70 μm, medical grade PCL): 1 year
exposure after which release deviated from zero-order ([3]; EFdA formulations other than castor oil): > 200 days
duration of zero-order kinetics ([3]; EFdA segment of segmented implant): 1 year
duration of sustained, zero order release ([3]; EFdA with varying excipients, 70 μm wall): over 60 days
duration of sustained zero-order release ([3]; EFdA-castor oil devices, 80 KDa PCL, 70 μm wall): 200 days
Release Rate (μg/day, 10 mm device) ([3]; EFdA:castor oil 1:1, 70 μm wall): 10 µg/day and 10.0 µg/day
Release Rate (μg/day, 10 mm device) ([3]; EFdA:ethyl oleate 1:1, 70 μm wall): 13.0 µg/day
Release Rate (μg/day, 10 mm device) ([3]; EFdA:glycerol 1:1, 70 μm wall): 15 µg/day and 15.0 µg/day
Release Rate (μg/day, 10 mm device) ([3]; EFdA:propylene glycol 1:1, 70 μm wall): 11.0 µg/day
Release Rate (μg/day, 10 mm device) ([3]; EFdA:sesame oil 1:1, 70 μm wall): 12.0 µg/day
duration of sustained linear release ([3]; exemplary EFdA formulations, summary statement): over 1 year
release profile / release rate ([3]; exemplary formulations/devices, summary statement): 5 to 30 µg/day
duration of zero-order release ([3]; segmented implant LNG/EFdA): 6 months
release rate of segment ([3]; segmented implant: LNG:ethyl oleate 1:4 and EFdA:castor oil 1:1, 70 μm wall, EFdA after burst of first 10 days): ~20 µg/day
Structure (SMILES): C#C[C@]1(CO)O[C@@H](n2cnc3c(N)nc(F)nc32)C[C@@H]1O [EFdA]

stability in vivo for 90 days [4]: 99.5%
% Purity at 180 Days ([2]; after 180-day in-vitro exposure, 200 μm implants per b165 (second listing in Table 5)): 99%
stability within an exemplary implant ([2]; tested at 180 days in in-vitro conditions): > 99%
Release rate ([3]; 10 mm-long devices, 200 μm implants per b165 (second listing in Table 5)): ~30 µg/day
start of deviation from linear release ([3]; ENG 1:4 and 1:1 drug to excipient ratios, depletion of drug): ~50 days
duration of sustained release with zero-order kinetics ([3]; ENG 2:1 ratio with castor oil or sesame oil): approximately 300 days
sustained period of release at about 30 μg/day ([3]; exemplary device, in vitro conditions): up to 180 days
duration of linear release profile in vitro ([3]; exemplary formulations, summary statement): 230 days
Daily RR [3, 8]: 26.2 ± 7.1 µg/day
Daily RR [3, 9]: 26.3 ± 6.7 µg/day
duration of zero-order release from segmented implants ([3]; segmented implants of TAF with LNG or ENG): 50 days
Structure (SMILES): C#C[C@]1(O)CC[C@H]2[C@@H]3CCC4=CC(=O)CC[C@@H]4[C@H]3C(=C)C[C@@]21CC [ENG, Etonogestrel]

aqueous solubility [5]: low
Structure (SMILES): COc1cc2c(cc1Cc1cccc(Cl)c1F)c(=O)c(C(=O)O)cn2[C@H](CO)C(C)C [Elvitegravir]

Structure (SMILES): Nc1nc(=O)n([C@@H]2CS[C@H](COP(=O)(O)OP(=O)(O)OP(=O)(O)O)O2)cc1F [FTC-TP, FTC-triphosphate]
duration of sustained levels in PBMCs [1]: 28 days

stability in vivo for 90 days [4]: 99.2%±0.1
stability within an exemplary implant ([2]; tested at 240 days in in-vitro conditions): greater than 92%
Structure (SMILES): C#C[C@]1(O)CC[C@H]2[C@@H]3CCC4=CC(=O)CC[C@@H]4[C@H]3CC[C@@]21CC [LNG, Levonorgestrel]

Structure (SMILES): O=C1CC[C@@]2(O)[C@H]3Cc4ccc(O)c5c4[C@@]2(CCN3CC2CC2)[C@H]1O5 [Naltrexone Base, Naltrexone]
Sum of impurities (% total area) ([6]; with PEG600): 5.10%
Sum of impurities (% total area) ([6]; with castor oil): 5.20%
Sum of impurities (% total area) ([6]; with ethyl oleate): 9.90%
Sum of impurities (% total area) ([6]; with sesame oil): 6.40%
Sum of impurities (% total area) ([7]; API alone, no excipient (reference line)): 2.50%
Sum of impurities (% total area) ([7]; excipient screen, in PEG600): 2.10%
Sum of impurities (% total area) ([7]; excipient screen, in castor oil): 4.50%
Sum of impurities (% total area) ([7]; excipient screen, in ethyl oleate): 9.60%
Sum of impurities (% total area) ([7]; excipient screen, in sesame oil): 3.20%
Assay ([7]; in PEG600): 46.2 mg/mL
Assay ([7]; in castor oil): 9.63 mg/mL
Assay ([7]; in ethyl oleate): 2.79 mg/mL
Assay ([7]; in sesame oil): 4.62 mg/mL

Structure (SMILES): O=C1CC[C@@]2(O)[C@H]3Cc4ccc(O)c5c4[C@@]2(CCN3CC2CC2)[C@H]1O5 [Naltrexone Salt, Naltrexone hydrochloride]
Sum of impurities (% total area) ([7]; API alone, no excipient (reference line), hydrochloride): 4.10%
Assay ([7]; in PEG600, hydrochloride): <0.1 mg/mL
Assay ([7]; in castor oil, hydrochloride): <0.1 mg/mL
Assay ([7]; in ethyl oleate, hydrochloride): No measurable solubility
Assay ([7]; in sesame oil, hydrochloride): No measurable solubility

Structure (SMILES): CC(C)OC(=O)[C@H](C)N[P@](=O)(CO[C@H](C)Cn1cnc2c(N)ncnc21)Oc1ccccc1 [TAF base]
Daily RR [3, 8]: 94.8 ± 17.6 µg/day
Daily RR [3, 9]: 57.9 ± 8.6 µg/day
Daily RR ([3]; segmented implant: LNG:sesame oil 2:1 (20 mm, 70 μm) + TAF base:castor oil 2:1 (30 mm, 70 μm)): 86.4 ± 10.3 µg/day
Daily RR ([3]; segmented implant: LNG:sesame oil 2:1 (20 mm, 70 μm) + TAF base:sesame oil 2:1 (30 mm, 70 μm)): 47.7 ± 6.7 µg/day
